According to article PMC6438725 (Arthritis & rheumatology (Hoboken, N.J.), 2019):
Where “and” joins values, the source holds several entries; their conditions need not be identical. Identical values can stand only once. Non-standard residues stand in square brackets, D forms with d. Residues, ends and D or L forms follow the SMILES beside them. No end group written: not given here. Cit = NC(=O)NCCC[C@H](N)C(=O)O

Target: DR0401 (HLA-DRB1*04:01) (Homo sapiens, UniProt P01903+P01911, A100K/A169T/F76Y/I96L/K127E/L162R/M171V/N62H/P40V/Q125Y/R42H/S133A/S149N/S66Y/V115G/V209L/W38E)
Assay: Peptide binding to DR0401
Conditions: not given

| Compound | EC50 |
| --- | --- |
| CC(C)C[C@H](NC(=O)[C@H](CCCNC(N)=O)NC(=O)[C@H](CC(=O)O)NC(=O)[C@@H](NC(=O)[C@H](Cc1ccccc1)NC(=O)[C@H](CS)NC(=O)[C@H](Cc1ccc(O)cc1)NC(=O)[C@@H](NC(=O)[C@@H](N)CC(=O)O)C(C)C)C(C)C)C(=O)N[C@@H](CCC(=O)O)C(=O)NCC(=O)N[C@@H](CCC(=O)O)C(=O)N[C@H](C(=O)N[C@@H](Cc1ccccc1)C(=O)N[C@@H](Cc1ccccc1)C(=O)N[C@@H](C)C(=O)O)C(C)C [agg 568] (H-DVYCFVD[Cit]LEGEVFFA-OH) | 23.4 µM and 3.06 µM |
| CC[C@H](C)[C@H](NC(=O)[C@@H]1CCCN1C(=O)[C@H](Cc1ccc(O)cc1)NC(=O)[C@H](CCCNC(N)=O)NC(=O)[C@@H](NC(=O)[C@H](CO)NC(=O)[C@H](CCCNC(N)=O)NC(=O)[C@H](CC(=O)O)NC(=O)[C@H](C)NC(=O)[C@H](CC(C)C)NC(=O)[C@H](Cc1c[nH]c2ccccc12)NC(=O)CNC(=O)[C@H](C)NC(=O)[C@@H](N)CO)C(C)C)C(=O)N[C@@H](CO)C(=O)N[C@@H](CCCCN)C(=O)O [agg 298-313] (H-SAGWLAD[Cit]SV[Cit]YPISK-OH) | 1.9 µM and 2.94 µM |
| CC(C)C[C@H](NC(=O)[C@H](CS)NC(=O)[C@H](Cc1ccccc1)NC(=O)[C@@H]1CCCN1C(=O)[C@H](CO)NC(=O)[C@@H](N)CC(N)=O)C(=O)N[C@@H](CCC(=O)O)C(=O)N[C@@H](CCCNC(N)=O)C(=O)N[C@H](C(=O)N1CCC[C@H]1C(=O)N[C@@H](CC(C)C)C(=O)NCC(=O)N[C@@H](CO)C(=O)N1CCC[C@H]1C(=O)N[C@@H](CC(=O)O)C(=O)N1CCC[C@H]1C(=O)N[C@@H](C)C(=O)O)[C@@H](C)O [agg 684] (H-NSPFCLE[Cit]TPLGSPDPA-OH) | 0.12 µM and 0.13 µM |
| CC[C@H](C)[C@H](NC(=O)[C@@H](NC(=O)[C@H](CCCNC(N)=O)NC(=O)[C@H](CC(C)C)NC(=O)[C@@H](NC(=O)[C@@H](NC(=O)[C@H](Cc1ccccc1)NC(=O)[C@@H](NC(=O)[C@H](Cc1c[nH]c2ccccc12)NC(=O)[C@H](CC(C)C)NC(=O)[C@H](CC(C)C)NC(=O)[C@@H](N)[C@@H](C)O)C(C)C)C(C)C)[C@@H](C)O)C(C)C)C(=O)N[C@H](C(=O)N[C@@H](C)C(=O)N[C@@H](C)C(=O)N[C@H](C(=O)N[C@H](C(=O)N[C@H](C(=O)O)C(C)C)[C@@H](C)O)C(C)C)[C@@H](C)O [agg 3-20] (H-TLLWVFVTL[Cit]VITAAVTV-OH) | 35.3 µM and 36.1 µM |
| CC(C)C[C@H](NC(=O)[C@H](CCCNC(N)=O)NC(=O)[C@@H](NC(=O)[C@H](C)NC(=O)[C@H](Cc1ccccc1)NC(=O)[C@H](Cc1ccccc1)NC(=O)[C@@H](NC(=O)[C@@H](N)CCC(=O)O)C(C)C)[C@@H](C)O)C(=O)N[C@@H](CCC(=O)O)C(=O)N[C@@H](CCC(N)=O)C(=O)N[C@@H](Cc1ccccc1)C(=O)N[C@H](C(=O)N[C@@H](Cc1ccccc1)C(=O)N[C@@H](CCC(N)=O)C(=O)N[C@@H](CCC(=O)O)C(=O)O)[C@@H](C)O [agg 579] (H-EVFFAT[Cit]LEQFTFQE-OH) | 78.4 µM and 15.3 µM |
| CC(C)C[C@H](NC(=O)[C@H](CO)NC(=O)[C@H](Cc1ccc(O)cc1)NC(=O)[C@H](CCCNC(N)=O)NC(=O)[C@@H](NC(=O)[C@@H]1CCCN1C(=O)CNC(=O)[C@@H]1CCCN1C(=O)[C@H](CCCNC(N)=O)NC(=O)[C@H](Cc1ccc(O)cc1)NC(=O)[C@H](Cc1c[nH]cn1)NC(=O)[C@H](Cc1ccccc1)NC(=O)[C@@H](NC(=O)[C@@H](NC(=O)CN)C(C)C)C(C)C)[C@@H](C)O)C(=O)N[C@H](C(=O)N[C@@H](Cc1ccccc1)C(=O)O)[C@@H](C)O [agg 477] (H-GVVFHY[Cit]PGPT[Cit]YSLTF-OH) | 14.7 µM and > 100 µM |
| CC[C@H](C)[C@H](NC(=O)[C@@H]1CCCN1C(=O)[C@H](Cc1ccc(O)cc1)NC(=O)[C@H](CCCNC(N)=O)NC(=O)[C@H](CC(C)C)NC(=O)[C@H](CO)NC(=O)CNC(=O)[C@H](CC(=O)O)NC(=O)[C@H](C)NC(=O)[C@H](CC(C)C)NC(=O)[C@H](Cc1c[nH]c2ccccc12)NC(=O)CNC(=O)[C@H](C)NC(=O)[C@H](Cc1ccc(O)cc1)NC(=O)[C@H](CS)NC(=O)[C@@H](N)CCCCN)C(=O)N[C@H](C(=O)O)C(C)C [agg 621] (H-KCYAGWLADGSL[Cit]YPIV-OH) | 6.9 µM and 4.66 µM |

Same assay, conditions: data not shown

| Compound | Binding to DR0401 (in words) |
| --- | --- |
| VVLLVATEG[Cit]VRVNSAYQDK [cit-Agg84, reference compound] | very low affinity |
